Data as given in PubChem BioAssay (NCI).
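Test compounds were applied to cells in 96-well plates for 48 hours at 5 doses. Here, GI50 denotes the concentration required for 50% inhibition of growth. TGI is the concentration that stops growth completely.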

What was measured:
Assay in all cases: NCI anticancer screen, dose series, 48 h
SW-620 colon = system: SW-620 colon
TK-10 renal = system: TK-10 renal
KM12 colon = system: KM12 colon
UO-31 renal = system: UO-31 renal
OVCAR-4 ovarian = system: OVCAR-4 ovarian
SK-OV-3 ovarian = system: SK-OV-3 ovarian
SNB-75 CNS = system: SNB-75 CNS
IGROV1 ovarian = system: IGROV1 ovarian
NCI-H226 lung = system: NCI-H226 lung

| SMILES | TGI (SW-620 colon) [µM] | TGI (TK-10 renal) [µM] | TGI (KM12 colon) [µM] | TGI (UO-31 renal) [µM] | TGI (OVCAR-4 ovarian) [µM] | TGI (SK-OV-3 ovarian) [µM] | TGI (SNB-75 CNS) [µM] | TGI (IGROV1 ovarian) [µM] | TGI (NCI-H226 lung) [µM] | GI50 (SW-620 colon) [µM] | GI50 (TK-10 renal) [µM] | GI50 (UO-31 renal) [µM] | GI50 (OVCAR-4 ovarian) [µM] | GI50 (SK-OV-3 ovarian) [µM] | GI50 (SNB-75 CNS) [µM] | GI50 (IGROV1 ovarian) [µM] | GI50 (NCI-H226 lung) [µM] | GI50 (KM12 colon) [µM] |
| --- | --- | --- | --- | --- | --- | --- | --- | --- | --- | --- | --- | --- | --- | --- | --- | --- | --- | --- |
| C=C(C#N)C1OCC2OC(C)(C)OC21 (stereo not drawn) | 39.6 | 58.5 | > 100 | > 100 | 33.6 | > 100 | 35.9 | > 100 | – | – | – | – | – | – | – | – | – | – |
| COc1ccc(-c2cc(=O)c3ccccc3o2)cc1N | > 100 | > 100 | > 100 | > 100 | > 100 | > 100 | 93.2 | > 100 | > 100 | – | – | – | – | – | – | – | – | – |
| COc1ccc(/C(=N\NC(=O)C(=O)NN)C(c2ccc(OC)cc2)C2(O)C(=O)Nc3ccccc32)cc1 (stereo not drawn) | > 100 | > 100 | > 100 | 82.1 | – | > 100 | > 100 | > 100 | > 100 | – | – | – | – | – | – | – | – | – |
| Cn1nc(-c2ccccc2)c(C(=O)/C=C/c2ccc(Cl)cc2)c(N2CCCCC2)c1=O | 16.6 | 14.3 | – | 3.03 | – | 9.81 | – | 4.95 | – | – | – | – | – | – | – | – | – | – |
| C[C@]12CCC(=O)C(O)=C1CC[C@@H]1C2CC[C@]2(C)NC(=O)CCC12 (stereo partly drawn) | > 100 | > 100 | > 100 | > 100 | > 100 | > 100 | > 100 | > 100 | > 100 | – | – | – | – | – | – | – | – | – |
| CC(C)(C)CC(C)(C)c1cc2c(O)c(c1)Cc1cc(C(C)(C)CC(C)(C)C)cc(c1O)Cc1cc(C(C)(C)CC(C)(C)C)cc(c1O)Cc1cc(C(C)(C)CC(C)(C)C)cc(c1O)Cc1cc(C(C)(C)CC(C)(C)C)cc(c1O)C2 | > 100 | > 100 | > 100 | > 100 | > 100 | – | > 100 | > 100 | – | – | – | – | – | – | – | – | – | – |
| Cc1cccc(C)c1CO | > 100 | – | > 100 | > 100 | > 100 | > 100 | > 100 | > 100 | > 100 | – | – | – | – | – | – | – | – | – |
| CC1=C[C@]2(O)C(=O)[C@H](C)C[C@H]3[C@@H](CC[C@@](C)(O)/C=C\2C1=O)C3(C)C | 35.9 | > 78.7 | > 100 | > 100 | 71.6 | 98 | > 100 | 53.1 | > 79.5 | – | – | – | – | – | – | – | – | – |
| CCOc1ccc(N=Cc2ccc3cc(C)ccc3n2)cc1 | > 100 | > 100 | > 100 | > 100 | > 100 | > 100 | > 100 | > 100 | > 100 | – | – | – | – | – | – | – | – | – |
| O=C(c1ccccc1)c1c(-c2ccccc2)sc2nc3ccccc3nc12 | > 100 | > 100 | > 100 | – | > 100 | > 100 | 85.6 | > 100 | > 100 | – | – | – | – | – | – | – | – | – |
| CC(=O)[CH-]C(=O)c1ccccc1.CC(=O)[CH-]C(=O)c1ccccc1.CC(C)CCCC(C)[C@H]1CCC2[C@@H]3CC=C4C[C@@H]([O-])CC[C@]4(C)C3CC[C@@]21C.CC(C)CCCC(C)[C@H]1CCC2[C@@H]3CC=C4C[C@@H]([O-])CC[C@]4(C)C3CC[C@@]21C.[Ti+4] (stereo partly drawn) | > 100 | > 100 | – | > 100 | > 100 | > 100 | > 100 | > 100 | > 100 | > 100 | > 100 | > 100 | > 100 | > 100 | > 100 | > 100 | > 100 | – |
| Cc1ccc(/C(O)=C/c2nc3c(nc2NC24CC5CC(CC(C5)C2)C4)c(=O)oc2ccccc23)cc1 | > 100 | > 100 | > 100 | > 100 | – | > 100 | 70.1 | > 100 | > 100 | – | – | – | – | – | – | – | – | – |
| O=C(O)Cc1cc(=O)[nH]c2c1/C(=N/O)CCC2 | > 100 | > 100 | > 100 | > 100 | – | > 100 | – | > 100 | > 100 | – | – | – | – | – | – | – | – | – |
| CC(C)[O-].CC(C)[O-].O=C1C=C([O-])C(=O)c2ccccc21.O=C1C=C([O-])C(=O)c2ccccc21.[Ti+4] | > 100 | > 100 | > 100 | > 100 | > 100 | > 100 | > 100 | > 100 | > 100 | 44.2 | > 100 | > 100 | > 100 | > 100 | 17.5 | > 100 | 63.9 | > 81.4 |
| COc1ccc(NC(=O)CC/C(CC(=O)C(C)(C)C)=N\NC(=O)C(=O)NN)cc1 | > 100 | > 100 | > 100 | > 100 | > 100 | > 100 | > 100 | > 100 | > 100 | – | – | – | – | – | – | – | – | – |
